Assay [1] concerns MA-L (DNA, aptamer) CAGAACTTACGACTCAGGCATTTTGCCGGGTAACGAAGTTACTGTCGTAAG
The assay is described as follows: ITC. As to conditions: Na+ 20 mM, Mg2+ 0.5 mM.

The subject of assay [2] is MA (DNA, aptamer) CTTACGACTCAGGCATTTTGCCGGGTAACGAAGTTACTGTCGTAAG
The experiment in a line: ITC. As to conditions: Na+ 20 mM, Mg2+ 0.5 mM.

One may read the KD as the equilibrium constant for the complex coming apart. Read a low KD as tighter binding. In the case of `CCCC(C(=O)c1ccc2c(c1)OCO2)N1CCCC1` (centres unmarked), the KD in assay [1] was found to be 6.2 µM; in assay [2] it was 6.1 ± 0.2 µM.

The record behind these values is publication PMC5934630 (2018).
